By IC50 is commonly meant the point on the concentration scale where inhibition reaches its midpoint.

The structures appear in SMILES notation.

The target in this assay is T1, human EP2 (PTGER2) (Homo sapiens, UniProt P43116).
T1 construct: Cayman Chemical (Human EP2 Reporter Assay Kit)
T1 sequence (P43116 whole entry): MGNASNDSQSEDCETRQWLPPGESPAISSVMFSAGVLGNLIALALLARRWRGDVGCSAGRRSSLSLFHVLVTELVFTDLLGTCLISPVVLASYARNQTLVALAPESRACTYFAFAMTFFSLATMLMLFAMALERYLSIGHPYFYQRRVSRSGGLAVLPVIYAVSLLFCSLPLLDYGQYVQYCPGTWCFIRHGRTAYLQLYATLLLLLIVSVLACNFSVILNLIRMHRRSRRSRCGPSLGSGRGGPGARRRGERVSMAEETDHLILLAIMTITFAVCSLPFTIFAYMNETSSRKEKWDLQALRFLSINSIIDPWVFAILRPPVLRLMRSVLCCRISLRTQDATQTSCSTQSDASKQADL
As to the kind of experiment: EP2 antagonist assay (HEK-293 CNG membrane potential cAMP assay / 293T SEAP reporter assay, PGE2-stimulated). In kind it is cell-based. To be noted: EP2 antagonist activity; concentration for 50% inhibition of signal compared to DMSO. An excerpt:
1. The HEK-293 CNG (Cyclic Nucleotide Gated) cell line expressing a modified CNG channel that leads to cell membrane depolarization in response to elevated intracellular cAMP levels, which can be measured using a fluorescent membrane potential dye, was engineered to express human EP2 (PTGER2) or EP4 (EP4R). The resulting cell line ACTOne™ PTGER2 or ACTOne™ EP4R as well as the fluorescent membrane potential dye were purchased from eEnzyme (Gaithersburg, MD, US) and used in this assay. Briefly, cells were plated at 1.2×10^4 cells/well in 20 μL DMEM supplemented with 2% Fetal Bovine Serum (FBS, VWR International), 1x Penicillin/Streptomycin (GenClone), 0.2 μg/mL puromycin (InvivoGen) and 50 μg/mL G418 (InvivoGen) on a 384 well plate (Greiner). The next day, cells were dye-loaded with 20 μL/well of 1x Dye-loading solution (eENZYME) following the manufacturer's instruction. After 2 hours of incubation at room temperature (RT) in the dark, a pre-read was made to obtain the background signals using CLARIOstar plate reader (BMG LABTECH, Germany) with the following filter settings: excitation=530/20 nm, emission=590/20 nm. Next, a serial dilution of compound (plus a DMSO control) were added to the plate (5 μL/well) and the reaction was incubated at RT for 15 min before adding 5 μL of PGE2 to every well for a final concentration of 5 nM. All wells were duplicated. The plate was then further incubated at RT for 30 min prior to a final read with the same machine settings. Background-subtracted signals were used to calculate IC50 values.
2. Human EP2 and EP4 Reporter Assay Kits were purchased from Cayman Chemical (Ann Arbor, MI, USA). The assay was performed following the provided User Manual. Briefly, a reverse transfection was performed by seeding 6.0×10^4 of 293T cells (ATCC) to each well of the provided Strip Plate coated with a proprietary transfection complex containing DNA constructs for expressing human EP2 or EP4 and a cAMP response element regulated secreted alkaline phosphatase (SEAP) reporter, in 200 μL DMEM supplemented with 2% FBS and incubated for 20-24 hours at 37° C. with 5% CO2. After the incubation, the culture medium was carefully removed, and the cells were replenished with 150 μL pre-warmed serum-free medium. PGE2 and test compounds were prepared together at 4x the desired final concentration, and 50 μL was added to each assigned well with the final concentration of 13 nM and 2 nM PGE2 for EP2 and EP4 assay, respectively. After 6-8 hours of incubation, 10 μL media from each well was transferred to corresponding well of a new plate, which was then sealed and incubated at 65° C. for 30 min. The plate was then cooled down to RT and 50 μL SEAP substrate was added to each well. Luminescence signal was measured using a CLARIOstar plate reader.
The IC50 value was determined as the concentration for 50% inhibition of signal compared to DMSO (A: IC50 […]; B: IC50 between 100 nM and 1,000 nM; C: IC50≥1,000 nM).
On the technique in general: Changes in cAMP serve as a functional read-out for many G protein-coupled receptors.
Molecule `C[C@@H](NC(=O)c1ccc(-c2cccc(C(F)(F)F)c2)c2ccn(Cc3ccc(C(F)(F)F)cc3)c12)c1ccc(C(=O)O)cc1` [Example 33, (R)-4-(1-(1-(4-(trifluoromethyl)benzyl)-4-(3-(trifluoromethyl)phenyl)-1H-indole-7-carboxamido)ethyl) benzoic acid] yielded an IC50 of no less than 1000 nM.

In the case of `O=C(O)c1ccc(C2(NC(=O)c3ccc(-c4cc(F)cc(F)c4)c4ccn(Cc5ccc(C(F)(F)F)cc5)c34)CC2)cc1` [Example 39, 4-(1-(4-(3,5-difluorophenyl)-1-(4-(trifluoromethyl)benzyl)-1H-indole-7-carboxamido)cyclopropyl)benzoic acid], the IC50 is 100 to 1000 nM.

Regarding `O=C(O)c1ccc(C2(NC(=O)c3ccc(Nc4ccc(F)c(Cl)c4)c4ccn(Cc5ccc(C(F)(F)F)cc5)c34)CC2)cc1` [Example 65, 4-(1-(4-((3-chloro-4-fluorophenyl)amino)-1-(4-(trifluoromethyl)benzyl)-1H-indole-7-carboxamido)cyclopropyl)benzoic acid], the IC50 fell in the range of 100 to 1000 nM.

`O=C(O)c1ccc(C2(NC(=O)c3ccc(Nc4ccc(F)cc4)c4ccn(Cc5ccc(C(F)(F)F)cc5)c34)CC2)cc1` [Example 64, 4-(1-(4-((4-fluorophenyl)amino)-1-(4-(trifluoromethyl)benzyl)-1H-indole-7-carboxamido)cyclopropyl)benzoic acid] gave an IC50 of less than 100 nM.

As for `C[C@H](NC(=O)c1cc(-c2ccccc2)cc2cnn(Cc3ccc(-c4ccc(F)cc4)cc3)c12)c1ccc(C(=O)O)cc1` [Example 202, (S)-4-(1-(1-((4′-fluoro-[1,1′-biphenyl]-4-yl)methyl)-5-phenyl-1H-indazole-7-carboxamido)ethyl)benzoic acid], the IC50 is less than 100 nM.

In turn, `C[C@H](NC(=O)c1cc(-c2cc(F)cc(F)c2)cc2ccn(Cc3ccc(C(F)(F)F)cc3)c12)c1ccc(C(=O)O)cc1` [Example 54, (S)-4-(1-(5-(3,5-difluorophenyl)-1-(4-(trifluoromethyl)benzyl)-1H-indole-7-carboxamido)ethyl) benzoic acid] registered an IC50 of less than 100 nM.

As to `C[C@H](NC(=O)c1cc(-c2cc(F)cc(F)c2)cc2nnn(Cc3ccc(C(F)(F)F)cc3)c12)c1ccc(C(=O)O)cc1` [Example 181, (S)-4-(1-(5-(3,5-difluorophenyl)-1-(4-(trifluoromethyl)benzyl)-1H-benzo[d][1,2,3]triazole-7-carboxamido)ethyl)benzoic acid], the IC50 was no less than 1000 nM.

In turn, `O=C(O)c1ccc(CNC(=O)c2cc(-c3ccc(F)cc3)cc3ccn(Cc4ccc5ccccc5c4)c23)cc1` [Example 160, 4-((5-(4-fluorophenyl)-1-(naphthalen-2-ylmethyl)-1H-indole-7-carboxamido)methyl)benzoic acid] gave an IC50 of less than 100 nM.

Molecule `N#Cc1cccc(-c2cc(C(=O)NC34CC(CC(=O)O)(C3)C4)c3c(Sc4ccc(C(F)(F)F)cc4)c[nH]c3c2)c1` [Example 118, 2-(3-(6-(3-cyanophenyl)-3-((4-(trifluoromethyl)phenyl)thio)-1H-indole-4-carboxamido)bicyclo[1.1.1]pentan-1-yl)acetic acid] returned an IC50 of 100 to 1000 nM.

`C[C@H](NC(=O)c1cc(-c2cccnc2)cc2ccn(Cc3cccc(Cl)c3)c12)c1ccc(C(=O)O)cc1` [Example 109, (S)-4-(1-(1-(3-chlorobenzyl)-5-(pyridin-3-yl)-1H-indole-7-carboxamido)ethyl)benzoic acid] registered a half-inhibitory concentration (IC50) of less than 100 nM.

Molecule `O=C(O)c1ccc(CNC(=O)c2cc(-c3ccc(F)cc3)cc3ccn(Cc4ccc(-c5ccc(F)cc5)cc4)c23)cc1` [Example 209, 4-((1-((4′-fluoro-[1,1′-biphenyl]-4-yl)methyl)-5-(4-fluorophenyl)-1H-indole-7-carboxamido)methyl)benzoic acid] displayed an IC50 of less than 100 nM.

In the case of `N#Cc1cccc(-c2cc(C(=O)NC3(c4ccc(C(=O)O)cc4)CC3)c3c(ccn3Cc3ccc(C(F)(F)F)cc3)c2)c1` [Example 17, 4-(1-(5-(3-cyanophenyl)-1-(4-(trifluoromethyl)benzyl)-1H-indole-7-carboxamido)cyclopropyl)benzoic acid], the IC50 was less than 100 nM.

In turn, `CN(c1ccccc1)c1cc(C(=O)NCc2ccc(C(=O)O)cc2)c2c(ccn2Cc2ccc(C(F)(F)F)cc2)c1` [Example 45, 4-((5-(methyl(phenyl)amino)-1-(4-(trifluoromethyl)benzyl)-1H-indole-7-carboxamido)methyl)benzoic acid] came in with a concentration for half-maximal inhibition (IC50) of 100 to 1000 nM.

For `C[C@@H](NC(=O)c1ccc(-c2ccc(F)c(F)c2)c2ccn(Cc3ccc(C(F)(F)F)cc3)c12)c1ccc(C(=O)O)cc1` [Example 31, (R)-4-(1-(4-(3,4-difluorophenyl)-1-(4-(trifluoromethyl)benzyl)-1H-indole-7-carboxamido)ethyl)benzoic acid], the IC50 was no less than 1000 nM.

`O=C(O)c1ccc(CNC(=O)c2ccc(Nc3ccc(Cl)cc3)c3ccn(Cc4ccc(C(F)(F)F)cc4)c23)cc1` [Example 73, ((4-((4-chlorophenyl)amino)-1-(4-(trifluoromethyl)benzyl)-1H-indole-7-carboxamido)methyl)benzoic acid] came in with an IC50 of 100 to 1000 nM.

In turn, `O=C(O)c1ccc(CNC(=O)c2ccc(-c3ccc(F)cc3)c3ccn(Cc4ccc(C(F)(F)F)cc4)c23)cc1` [Example 25, 4-((4-(4-fluorophenyl)-1-(4-(trifluoromethyl)benzyl)-1H-indole-7-carboxamido)methyl)benzoic acid] had an IC50 of no less than 1000 nM.

Molecule `C[C@@H](NC(=O)c1ccc(-c2cccc(C#N)c2)c2ccn(Cc3ccc(C(F)(F)F)cc3)c12)c1ccc(C(=O)O)cc1` [Example 30, (R)-4-(1-(4-(3-cyanophenyl)-1-(4-(trifluoromethyl)benzyl)-1H-indole-7-carboxamido)ethyl) benzoic acid] displayed an IC50 of no less than 1000 nM.

Turning to `CN1CCN(c2ccc(C(=O)NCc3ccc(C(=O)O)cc3)c3c2ccn3Cc2ccc(C(F)(F)F)cc2)CC1` [Example 59, 4-((4-(4-methylpiperazin-1-yl)-1-(4-(trifluoromethyl)benzyl)-1H-indole-7-carboxamido)methyl)benzoic acid], the IC50 is no less than 1000 nM.

`NC(=O)c1cccc(-c2cc(C(=O)NCc3ccc(C(=O)O)cc3)c3c(ccn3Cc3ccc(C(F)(F)F)cc3)c2)c1` [Example 82, 4-((5-(3-carbamoylphenyl)-1-(4-(trifluoromethyl)benzyl)-1H-indole-7-carboxamido)methyl)benzoic acid] had an IC50 of less than 100 nM.

`N#Cc1cccc(-c2cc(C(=O)NC3CC4(C3)CC(C(=O)O)C4)c3c(Sc4ccc(C(F)(F)F)cc4)c[nH]c3c2)c1` (racemic) [Example 114, (±) 6-(6-(3-cyanophenyl)-3-((4-(trifluoromethyl)phenyl)thio)-1H-indole-4-carboxamido)spiro[3.3]heptane-2-carboxylic acid]: the IC50 is less than 100 nM.

Molecule `O=C(O)c1ccc(CNC(=O)c2ccc(Nc3ccccc3)c3ccn(Cc4cccc(Cl)c4)c23)cc1` [Example 103, 4-((1-(3-chlorobenzyl)-4-(phenylamino)-1H-indole-7-carboxamido)methyl)benzoic acid] registered an IC50 of 100 to 1000 nM.

As to `O=C(O)c1ccc(CNC(=O)c2cc(-c3ccccc3)cc3ccn(Cc4cccc(C(F)(F)F)c4)c23)cc1` [Example 122, 4-((5-phenyl-1-(3-(trifluoromethyl)benzyl)-1H-indole-7-carboxamido)methyl)benzoic acid], the IC50 was less than 100 nM.

As to `O=C(O)c1ccc(CNC(=O)c2ccc(-c3cc(F)cc(F)c3)c3ccn(Cc4ccc(C(F)(F)F)cc4)c23)cc1` [Example 27, 4-((4-(3,5-difluorophenyl)-1-(4-(trifluoromethyl)benzyl)-1H-indole-7-carboxamido)methyl) benzoic acid], the IC50 is no less than 1000 nM.

Consider `C[C@H](NC(=O)c1cc(-c2ccc(F)c(F)c2)cc2cnn(Cc3ccc(C(F)(F)F)cc3)c12)c1ccc(C(=O)O)cc1` [Example 195, (S)-4-(1-(5-(3,4-difluorophenyl)-1-(4-(trifluoromethyl)benzyl)-1H-indazole-7-carboxamido)ethyl)benzoic acid], for which the IC50 was less than 100 nM.

The values are drawn from patent publication US20250179017A1 (GUANGDONG NEWOPP BIOPHARMACEUTICALS CO., LTD., priority 2022, published 2025).
